Where “and” joins values, the source holds several entries; their conditions need not be identical. Equal values may be shown once. Toxic doses and inconclusive results are not listed.

For this assay, the system named is BDF1 mice, P388 leukemia ip, median survival T/C. As to the kind of experiment: NCI In Vivo Anticancer Drug Screen. Data for tumor model P388 Leukemia (intraperitoneal) in B6D2F1 (BDF1) mice. The conditions noted are these: endpoint: median survival time, higher = longer survival. The method, boiled down: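 Vehicle-dosed animals serve as the reference; survival of compound-dosed, tumour-implanted mice is divided by it.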

Setting [1] is: dose: 100.0 mg/kg/injection, schedule: Q04DX003 (ip), vehicle: saline with Tween-80.
Setting [2] is: dose: 200.0 mg/kg/injection, schedule: Q04DX003 (ip), vehicle: saline with Tween-80.
Setting [3] is: dose: 25.0 mg/kg/injection, schedule: Q01DX009 (ip), vehicle: Klucel (hydroxypropylcellulose) (HPC).
[4] abbreviates: dose: 50.0 mg/kg/injection, schedule: Q01DX009 (ip), vehicle: Klucel (hydroxypropylcellulose) (HPC).
[5] abbreviates: dose: 100.0 mg/kg/injection, schedule: Q01DX009 (ip), vehicle: Klucel (hydroxypropylcellulose) (HPC).
[6] abbreviates: dose: 100.0 mg/kg/injection, schedule: Q04DX003 (ip), vehicle: Klucel (hydroxypropylcellulose) (HPC).
Setting [7] is: dose: 200.0 mg/kg/injection, schedule: Q01DX009 (ip), vehicle: Klucel (hydroxypropylcellulose) (HPC).
Setting [8] is: dose: 200.0 mg/kg/injection, schedule: Q04DX003 (ip), vehicle: Klucel (hydroxypropylcellulose) (HPC).
Setting [9] is: dose: 400.0 mg/kg/injection, schedule: Q04DX003 (ip), vehicle: Klucel (hydroxypropylcellulose) (HPC).

In the case of `NC(=O)CC(N)C(=O)O` (centres undefined), the T/C reads like this: (dose: 200.0 mg/kg/injection, schedule: Q01DX009 (ip), vehicle: saline) 100 % of control; (dose: 200.0 mg/kg/injection, schedule: Q01DX010 (ip), vehicle: other) 110 % of control; (dose: 400.0 mg/kg/injection, schedule: Q01DX009 (ip), vehicle: saline) 100 % of control; (dose: 400.0 mg/kg/injection, schedule: Q01DX010 (ip), vehicle: other) 120 % of control; (dose: 400.0 mg/kg/injection, schedule: Q01DX010 (ip), vehicle: saline with Tween-80) 86 % of control; (dose: 800.0 mg/kg/injection, schedule: Q01DX009 (ip), vehicle: saline) 110 % of control. Moreover, the T/C was 100 % of control (dose: 800.0 mg/kg/injection, schedule: Q01DX010 (ip), vehicle: other); 115 % of control (dose: 1600.0 mg/kg/injection, schedule: Q01DX009 (ip), vehicle: saline); 115 % of control (dose: 1600.0 mg/kg/injection, schedule: Q01DX010 (ip), vehicle: other); 150 % of control (dose: 1600.0 mg/kg/injection, schedule: Q01DX010 (ip), vehicle: saline with Tween-80).
With `CCCCCCCC[N+](C)(C)CCSCC[N+](C)(C)CCCCCCCC`, where the note is “dose: 12.5 mg/kg/injection, schedule: Q01DX009 (ip), vehicle: saline with Tween-80”, the T/C was 109 % of control.
As to `Nc1ccn(CC(=O)c2ccco2)c(=O)n1`, the T/C is, setting by setting: (dose: 6.25 mg/kg/injection, schedule: Q01DX009 (ip), vehicle: saline) 109 % of control; (dose: 12.5 mg/kg/injection, schedule: Q01DX009 (ip), vehicle: saline) 95 % of control; (dose: 25.0 mg/kg/injection, schedule: Q01DX009 (ip), vehicle: saline) 95 % of control and 109 % of control; (dose: 50.0 mg/kg/injection, schedule: Q01DX009 (ip), vehicle: saline) 86 % of control; (dose: 50.0 mg/kg/injection, schedule: Q04DX003 (ip), vehicle: saline) 105 % of control; (dose: 100.0 mg/kg/injection, schedule: Q04DX003 (ip), vehicle: saline) 105 % of control.
On to `Cc1nnc2ncnn2c1N(C)c1ccccc1`, for which the T/C runs as follows: (dose: 50.0 mg/kg/injection, schedule: Q04DX003 (ip), vehicle: saline with Tween-80) 100 % of control; under setting [1], 95 % of control; under setting [2], 100 % of control.
Consider `CC(=O)C(C(C)=O)c1ccccc1.CC(=O)C(C(C)=O)c1ccccc1.[Ni]`, for which the T/C (dose: 3.0 mg/kg/injection, schedule: Q01DX009 (ip), vehicle: Klucel (hydroxypropylcellulose) (HPC)) is 110 % of control; the T/C (dose: 6.0 mg/kg/injection, schedule: Q01DX009 (ip), vehicle: Klucel (hydroxypropylcellulose) (HPC)) is 100 % of control; the T/C (dose: 6.0 mg/kg/injection, schedule: Q04DX003 (ip), vehicle: other) was 100 % of control; the T/C (dose: 12.0 mg/kg/injection, schedule: Q01DX009 (ip), vehicle: Klucel (hydroxypropylcellulose) (HPC)) was 100 % of control; the T/C (dose: 12.0 mg/kg/injection, schedule: Q04DX003 (ip), vehicle: other) was 95 % of control; the T/C (dose: 25.0 mg/kg/injection, schedule: Q04DX003 (ip), vehicle: other) was 100 % of control.
Take `CC1(C)SC(=S)N(c2ccc([N+](=O)[O-])cc2)C1=O`: the T/C reads like this: (dose: 75.0 mg/kg/injection, schedule: Q01DX009 (ip), vehicle: saline with Tween-80) 115 % of control; (dose: 150.0 mg/kg/injection, schedule: Q01DX009 (ip), vehicle: saline with Tween-80) 113 % of control; (dose: 300.0 mg/kg/injection, schedule: Q01DX009 (ip), vehicle: saline with Tween-80) 96 % of control.
On to `O=C(/C=C(\CN1CCCCC1)c1ccccc1)c1ccccc1`, for which the T/C under setting [3] was 100 % of control; the T/C (dose: 25.0 mg/kg/injection, schedule: Q04DX003 (ip), vehicle: Klucel (hydroxypropylcellulose) (HPC)) is 91 % of control; the T/C under setting [4] is 104 % of control; the T/C (dose: 50.0 mg/kg/injection, schedule: Q04DX003 (ip), vehicle: Klucel (hydroxypropylcellulose) (HPC)) is 104 % of control; the T/C under setting [5] was 109 % of control; the T/C under setting [6] is 108 % of control.
Turning to `CCOC(=O)c1c(C)[nH]c(C)c1-c1ccccc1`, the T/C (dose: 100.0 mg/kg/injection, schedule: Q01DX001 (ip), vehicle: Klucel (hydroxypropylcellulose) (HPC)) was 109 % of control; the T/C (dose: 200.0 mg/kg/injection, schedule: Q01DX001 (ip), vehicle: Klucel (hydroxypropylcellulose) (HPC)) is 109 % of control; the T/C (dose: 400.0 mg/kg/injection, schedule: Q01DX001 (ip), vehicle: Klucel (hydroxypropylcellulose) (HPC)) is 109 % of control.
In the case of `[NH-]CC([NH-])=O.[NH-]CC([NH-])=O.[Ni]`, the T/C runs as follows: (dose: 5.0 mg/kg/injection, schedule: Q01DX009 (ip), vehicle: water) 105 % of control; (dose: 10.0 mg/kg/injection, schedule: Q01DX009 (ip), vehicle: water) 105 % of control; (dose: 12.5 mg/kg/injection, schedule: Q04DX003 (ip), vehicle: water) 95 % of control; (dose: 25.0 mg/kg/injection, schedule: Q04DX003 (ip), vehicle: water) 109 % of control.
Take `CCCN(CCC)c1ccc(/C=C/c2ccc3cc(OCC)ccc3n2)cc1`: the T/C by setting is: under setting [5], 100 % of control; under setting [6], 104 % of control; under setting [7], 100 % of control; under setting [8], 104 % of control; (dose: 400.0 mg/kg/injection, schedule: Q01DX009 (ip), vehicle: Klucel (hydroxypropylcellulose) (HPC)) 90 % of control; under setting [9], 109 % of control.
For the compound `Cc1ccc([N+](=O)[O-])cc1NC(=O)SCCOC(=O)COc1ccc(Cl)cc1Cl`, the T/C is, setting by setting: under setting [1], 86 % of control; under setting [2], 100 % of control; (dose: 400.0 mg/kg/injection, schedule: Q04DX003 (ip), vehicle: saline with Tween-80) 90 % of control.
Regarding `CN1C=c2c3c(ccc2=C2C=CC4C=C5OCOC5=CC4=C21)OCO3` (centres undefined), the T/C by setting is: (dose: 5.0 mg/kg/injection, schedule: Q01DX010 (ip), vehicle: saline) 110 % of control; (dose: 6.25 mg/kg/injection, schedule: Q04DX003 (ip), vehicle: saline) 100 % of control; (dose: 10.0 mg/kg/injection, schedule: Q01DX010 (ip), vehicle: saline) 100 % of control; (dose: 12.5 mg/kg/injection, schedule: Q04DX003 (ip), vehicle: saline) 100 % of control; (dose: 20.0 mg/kg/injection, schedule: Q01DX010 (ip), vehicle: saline) 105 % of control; (dose: 25.0 mg/kg/injection, schedule: Q04DX003 (ip), vehicle: saline) 109 % of control.
With `CCN(CC)c1ccc(C2NC(=O)c3ccccc3N2)cc1` (centres undefined), the T/C reads like this: under setting [3], 110 % of control; under setting [4], 120 % of control; under setting [5], 95 % of control.
As to `OCC#CCO`, the T/C (dose: 12.0 mg/kg/injection, schedule: Q01DX001 (ip), vehicle: saline) was 95 % of control; the T/C (dose: 25.0 mg/kg/injection, schedule: Q01DX001 (ip), vehicle: saline) was 113 % of control; the T/C (dose: 50.0 mg/kg/injection, schedule: Q01DX001 (ip), vehicle: saline) is 109 % of control.
Regarding `COc1cccc(C(=O)O)c1OS(=O)(=O)c1ccc(C)cc1`, the T/C was 108 % of control (dose: 25.0 mg/kg/injection, schedule: Q01DX009 (ip), vehicle: other); 100 % of control (dose: 50.0 mg/kg/injection, schedule: Q01DX009 (ip), vehicle: other); 100 % of control (dose: 100.0 mg/kg/injection, schedule: Q01DX009 (ip), vehicle: other); 101 % of control (dose: 200.0 mg/kg/injection, schedule: Q01DX009 (ip), vehicle: other); 103 % of control (dose: 400.0 mg/kg/injection, schedule: Q01DX009 (ip), vehicle: other).
With `O=[N+]([O-])c1ccc(C2OC2c2ccccc2)cc1` (centres undefined), the T/C is 122 % of control under setting [4]; 111 % of control under setting [5]; 95 % of control and 120 % of control under setting [6]; 111 % of control under setting [7]; 110 % of control under setting [8]; 91 % of control and 110 % of control under setting [9].
